Article PMC4128255 (European journal of medicinal chemistry, 2014)
Ends that are not written are not given here. fluorescein = fluorescein label on the lysine ε-amino group

Assays:
[1] = biological target: eIF4E (GST-eIF4E) (Homo sapiens, UniProt P06730); experiment: Fluorescence polarization; format: binding; conditions: for FP ratio: Table 3, IC50 of [Z]-4EGI-1/IC50 of compound in the same plate; for loss in binding affinity: relative to 4EGI-1, FP
[2] = system: cyclin D1, cyclin E, Survivin, β-Actin, α-Tubulin expression in CRL-2813 melanoma cells; experiment: Western blot of regulatory and housekeeping protein expression in CRL-2813 cells; format: cell-based, Human; conditions: 6 hrs
[3] = biological target: GST-eIF4E fusion protein (recombinant, E. coli-expressed) (not stated (human or mouse cDNA cloned)) (UniProt P06730); experiment: fluorescence polarisation
Chain of GST-eIF4E fusion protein (recombinant, E. coli-expressed) (not stated (human or mouse cDNA cloned)) (P06730 27-217 limits assumed): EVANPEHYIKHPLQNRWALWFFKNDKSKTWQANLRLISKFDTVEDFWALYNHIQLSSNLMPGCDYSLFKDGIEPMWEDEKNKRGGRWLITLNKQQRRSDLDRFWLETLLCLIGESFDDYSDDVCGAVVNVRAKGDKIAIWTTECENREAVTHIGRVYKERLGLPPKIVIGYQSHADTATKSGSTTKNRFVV

Chain of eIF4E (GST-eIF4E) (P06730 27-217 limits assumed): as above

4-(2-Carboxy-2-(2-(5-(3,4-dichlorophenyl)thiazol-2-yl)hydrazono)ethyl)-3-nitrobenzoic acid [[Z]-11b]
FP ratio [1]: 0.9

O=C(O)/C(Cc1ccccc1[N+](=O)[O-])=N\Nc1nc(-c2ccc(Cl)c(Cl)c2)cs1 [[Z]-4EGI-1, 2-(2-(4-(3,4-Dichlorophenyl)thiazol-2-yl)hydrazono)-3-(2-nitrophenyl)propanoic acid, reference compound]
expression of housekeeping proteins β-Actin and α-Tubulin [2]: not affected | expression of regulatory proteins cyclin D1, cyclin E, and Survivin [2]: markedly reduced

2-(2-(5-(3,4-Dichlorophenyl)thiazol-2-yl)hydrazono)-3-(4-hydroxy-3-nitrophenyl)propanoic acid [[Z]-11c]
FP ratio [1]: 1.1

O=C(O)C(Cc1ccc(O)cc1)=NNc1nc(-c2ccc(Cl)c(Cl)c2)cs1 [Compound 10d, 2-(2-(4-(3,4-Dichlorophenyl)thiazol-2-yl)hydrazono)-3-(4-hydroxyphenyl)propanoic acid]
loss in binding affinity [1]: 30–40%

4-(2-Carboxy-2-(2-(5-(3,4-dichlorophenyl)thiazol-2-yl)hydrazono)ethyl)-3-nitrobenzoic acid [[E]-11b]
FP ratio [1]: 0.6

2-(2-(5-(3,4-Dichlorophenyl)thiazol-2-yl)hydrazono)-3-(4-hydroxy-3-nitrophenyl)propanoic acid [[E]-11c]
FP ratio [1]: 0.9

O=C(O)/C(Cc1ccccc1[N+](=O)[O-])=N\Nc1nc(-c2ccc(O)cc2)cs1 [[Z]-12b, 2-(2-(4-(4-Hydroxyphenyl)thiazol-2-yl)hydrazono)-3-(2-nitrophenyl)propanoic acid]
expression of housekeeping proteins β-Actin and α-Tubulin [2]: no effect | expression of regulatory proteins cyclin D1, cyclin E, and Survivin [2]: no effect

O=C(O)C(Cc1ccc(C(F)(F)F)cc1)=NNc1nc(-c2ccc(Cl)c(Cl)c2)cs1 [Compound 10i, 2-(2-(4-(3,4-Dichlorophenyl)thiazol-2-yl)hydrazono)-3-(4-(trifluoromethyl)phenyl)propanoic acid]
loss in binding affinity [1]: 30–40%

3-(4-Amino-3-nitrophenyl)-2-(2-(5-(3,4-dichlorophenyl)thiazol-2-yl)hydrazono)propanoic acid [[E]-11a]
FP ratio [1]: 1.0

KYTYDELFQLK(fluorescein)-OH [fluorescein labeled eIF4G-derived peptide …(ε-Flu)-OH]
Kd [3]: 3 µM
